Laboratory results published in BindingDB's records for doi:10.1016/s0960-894x(99)00095-5 (Warner-Lambert, 1999).

Biological target: Trypsin (Bos taurus)
Test: In vitro for inhibition of purified bovine trypsin.

| Structure (SMILES) | IC50 |
| --- | --- |
| CN(c1nc2ccccc2c(=O)o1)S(=O)(=O)c1ccc(Cl)c(Cl)c1 [3,4-Dichloro-N-methyl-N-(4-oxo-4H-benzo[d][1,3]oxazin-2-yl)-benzenesulfonamide] | 8.3 µM |
| Cc1ccc(S(=O)(=O)N(C)c2nc3ccccc3c(=O)o2)cc1 [4,N-Dimethyl-N-(4-oxo-4H-benzo[d][1,3]oxazin-2-yl)-benzenesulfonamide] | 4.5 µM |
| CN(c1nc2ccccc2c(=O)o1)S(=O)(=O)c1ccc(Cl)cc1 [4-Chloro-N-methyl-N-(4-oxo-4H-benzo[d][1,3]oxazin-2-yl)-benzenesulfonamide] | 1.3 µM |
| COc1ccc(S(=O)(=O)N(C)c2nc3ccccc3c(=O)s2)cc1 [4-Methoxy-N-methyl-N-(4-oxo-4H-benzo[d][1,3]thiazin-2-yl)-benzenesulfonamide] | > 200 µM |
| CN(c1nc2ccccc2c(=O)o1)S(=O)(=O)c1ccc(C(C)(C)C)cc1 [4-tert-Butyl-N-methyl-N-(4-oxo-4H-benzo[d][1,3]oxazin-2-yl)-benzenesulfonamide] | 5.83 µM |
| CN(c1nc2ccccc2c(=O)o1)S(=O)(=O)c1ccc([N+](=O)[O-])cc1 [N-Methyl-4-nitro-N-(4-oxo-4H-benzo[d][1,3]oxazin-2-yl)-benzenesulfonamide] | > 100 µM |
